According to patent US20070059769A1, “High throughput glycan microarrays” (priority 2004, published 2007):
Where two headings read alike, the source gives them in different places.

Key:
[1] = test system: β3GlcNAcT; assay: β3GlcNAcT acceptor specificity; conditions: acceptor substrate; lactose (4) = 100%
Description: Both enzymes, β4GalT-GalE and β3GlcNAcT, were over expressed in E. coli AD202 in a large-scale fermentor (100 L). Bacteria were cultured in 2YT medium and induced with iso-propyl-thiogalactopyranoside (IPTG) to ultimately produce 8-10 g of bacterial cell paste/L cell media. The enzymes were then released from the cells by a microfluidizer and were solubilized in Tris buffer (25 mM, pH 7.5) containing manganese chloride (10 mM) and Triton X (0.25%) to reach enzymatic activities of about 50 U/L and 115 U/L of cell culture β4GalT-GalE and β3GlcNAcT, respectively.

[2] = biological target: Concanavalin A (Canavalia ensiformis, UniProt P02866); conditions: printing times up to 5 hours
Description: Glycan Binding Protein binding assay. Printed slides were analyzed without any further modification of the surface. […] GBP's were added at a concentration of 5-50 μg/mL in buffer (usually PBS containing 0.005-0.5% Tween-20). […] Slides were subsequently washed by successive rinses in (i) PBS-Tween (0.05%), (ii) PBS and (iii) de-ionized water, then immediately subjected to imaging.
Image acquisition and signal processing. Fluorescence intensities were detected using a ScanArray 5000 (Perkin Elmer, Boston, Mass.) confocal scanner and image analyses were carried out using ImaGene image analysis software (BioDiscovery Inc, El Segundo, Calif.). Signal to background was typically greater than 50:1 and no background subtractions were performed.
Binding of fluorescein-labeled concanavalin A (con A) was used as a measure of ligand coupling.

[3] = test system: 2G12; assay: glycan array binding of anti-HIV 2G12 monoclonal antibody; set-up: species or system human
[4] = test system: serum antibodies of xenotransplant recipients; assay: glycan array binding of antibodies in sera of recipients of porcine fetal pancreas islet-like cell clusters; set-up: species or system human; conditions: before and 1, 6, 12 months after transplantation
Description: In 1991-1994, several diabetic (I) patients received transplantation of porcine fetal pancreas islet-like cell clusters (ICC). See, Groth, C. G. et al. Transplantation of porcine fetal pancreas to diabetic patients, The Lancet 344: 1402-4 (1994). The inventor analyzed serum from three of these patients before transplant (t=0), 1 months after (t=1), 6 months after (t=2) and 12 months after (t=3) transplant.
(§1) Sera were diluted as needed with PBS containing 3% BSA, and placed on the glycan array slide in humidified chamber at room temperature for 90 min. The glycan array slide was then rinsed gently with PBS/0.05% Tween, incubated with biotinylated goat antibody against human IgG, IgM and IgA, rinsed in PBS/0.05% Tween, and incubated with streptavidin-Alexa488 fluorescent dye. Following rinses in PBS/0.05% Tween and H2O, glycan array slides were dried and scanned using the commercial DNA array scanner. […] Signal to background was typically greater 50:1 and no background subtractions were performed. Data were plotted using MS Excel software.

[5] = test system: anti-carbohydrate antibodies in sera of metastatic breast cancer patients; assay: glycan array binding of antibodies in sera of metastatic breast cancer patients; set-up: species or system human; conditions: sera diluted 1:25
Description: Individual (not pooled) sera were collected from 9 patients who were diagnosed with metastatic breast cancer (MBC). Blood samples were collected before treatment, so that therapeutic intervention would not interfere with patient immune responses. One patient with breast cancer but with good prognosis (IDC, Stage 1) was also included in the study. As control, or “healthy” sera, sera from ten healthy individuals, 5 female and 5 male, with no known malignancies was collected.
as §1, with “1:25” for “as needed”

[6] = biological target: T1, chST6GalNAc-I (Gallus gallus, UniProt Q92183); assay: chST6GalNAc-I activity on small acceptor molecules; format: biochemical, chicken; conditions: α-D-galacto derivative as acceptor
T1 construct: made in house; host or cells: insect cells
T1 sequence (Q92183 whole entry): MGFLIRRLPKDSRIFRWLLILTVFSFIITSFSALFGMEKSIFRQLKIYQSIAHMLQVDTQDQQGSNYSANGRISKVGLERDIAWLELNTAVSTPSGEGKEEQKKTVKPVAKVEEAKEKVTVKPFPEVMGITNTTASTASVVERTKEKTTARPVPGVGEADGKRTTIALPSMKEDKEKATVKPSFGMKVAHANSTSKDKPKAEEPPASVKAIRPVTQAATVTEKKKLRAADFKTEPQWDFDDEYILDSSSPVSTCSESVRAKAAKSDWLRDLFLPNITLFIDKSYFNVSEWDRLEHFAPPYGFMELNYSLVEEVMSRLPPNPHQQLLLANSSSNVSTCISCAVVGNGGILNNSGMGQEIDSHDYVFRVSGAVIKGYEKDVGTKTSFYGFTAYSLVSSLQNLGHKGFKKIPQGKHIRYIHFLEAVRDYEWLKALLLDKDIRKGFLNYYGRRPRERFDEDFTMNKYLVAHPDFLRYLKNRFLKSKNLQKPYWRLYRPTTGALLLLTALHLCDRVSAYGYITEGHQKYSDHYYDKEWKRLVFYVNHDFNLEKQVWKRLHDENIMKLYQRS
Source text: The inventors have previously reported the cloning, expression, and characterization of chicken ST6GalNAc-I and its use in preparative synthesis of the O-linked sialoside antigens, STn-, α(2-6)SiaT-, α(2-3)SiaT- and Di-SiaT-antigen. Blixt, O.; Allin, K.; Pereira, L.; Datta, A. and Paulson, J. C., J. Am. Chem. Soc. 2002, 124, 5739-5746. Briefly, the recombinant enzyme was expressed in insect cells and purified by CDP-sepharose affinity chromatography to generate approximately 10 U/L of cell culture.

In the case of Galβ(1-4)GlcNAc [Acceptor 6], the “Relative enzyme activity (%) β(1-3)GlcNAcT-activity” value [1] is reported as 7-8%.

In the case of `OCC1O[C@@H](O)C(O)[C@@H](O)[C@@H]1O[C@@H]1OC(CO)[C@H](O)[C@H](O)C1O` (stereo partly shown) [Acceptor 4, Galβ(1-4)Glc], the “Relative enzyme activity (%) β(1-3)GlcNAcT-activity” value [1] is reported as 100%.

In the case of “Manα1-2Manα1-3(Manα1-2Manα1-6)ManαSp [Glycan 136]”, the “variation in maximal binding of con A” value [2] is reported as “less than 10%”, the “binding of 2G12” value [3] is reported as “strong binding” and the “Rel. spec. (relative binding activity of 2G12)” value ([3]; 2G12 30 μg/mL pre-complexed with goat anti-human-IgG-FITC) is reported as “+++ (+++ >25,000)”.

“Galα1-3Galβ1-4(Fucα1-3)GlcNAcβSp [Glycan 34]” was tested, and the “reactivity of serum antibodies of xenotransplant recipients” value [4] was “clearly exhibit an immune response”.

In the case of Neu5Gc(2-6)GalNAc, the “binding by / level of serum antibodies in metastatic breast cancer patients versus healthy individuals” value [5] is reported as “bind”.

In the case of “Manα1-6(Manα1-3)Manα1-6(Manα1-2Manα1-3)Manβ1-4GlcNAcβ1-4GlcNAcβSp [Glycan 142]”, the “binding of 2G12” value [3] is reported as “did not support binding at all”.

With “Gal-beta3-GalNAc-beta4-[Neu5Ac-alpha3]-Gal-beta4-Glc-beta [GM1]” the “binding by / level of serum antibodies in metastatic breast cancer patients versus healthy individuals” value [5] was “bind and higher than in the healthy individuals”.

In the case of “Manα1-2Manα1-2Manα1-3(Manα1-2Manα1-3(Manα1-2Manα1-6)Manα1-6)Manβ1-4GlcNAcβ1-4GlcNAcβSp [Glycan 145]”, the “binding of 2G12” value ([3]; listed as Man9) is reported as “relatively weakly bound” and the “binding of 2G12” value ([3]; listed as Man-9-N-glycans) is reported as “smaller level of binding”.

For Neu5Acα2-6GalNAcα-, the “binding by / level of serum antibodies in metastatic breast cancer patients versus healthy individuals” value [5] was “significantly higher levels”.

In the case of `CC(=O)N[C@H]1C(O)O[C@H](CO)[C@H](O)[C@@H]1O` (stereo partly drawn) [D-GalNAc], the “chST6GalNAc-I activity, cpm” value [6] is reported as 0 cpm and the “chST6GalNAc-I activity, nmol/mg × min^−1” value [6] is reported as 0.00 nmol/mg × min^−1.

With “Manα1-6(Manα1-2Manα1-3)Manα1-6(Manα1-2Manα1-3)Manβ1-4GlcNAcβ1-4GlcNAcβSp [Glycan 143]” the “binding of 2G12” value [3] was “did not support binding at all”.

`CC(=O)N[C@H]1[C@H](O[C@H]2[C@@H](O)[C@@H](CO)O[C@@H](O[C@H]3[C@H](O)[C@@H](O)C(O)O[C@@H]3CO)[C@@H]2O)O[C@H](CO)[C@@H](O)[C@@H]1O` (stereo partly drawn) [LNT-2, GlcNAc-beta3-Gal-beta4-Glc-beta] was tested, and the “binding by / level of serum antibodies in metastatic breast cancer patients versus healthy individuals” value [5] was “bind and higher than in the healthy individuals”.

In the case of “Manα1-2Manα1-6(Manα1-3)Manα1-6(Manα1-2Manα1-3)Manβ1-4GlcNAcβ1-4GlcNAcβSp [Glycan 144]”, the “binding of 2G12” value [3] is reported as “strong preference”.

For “Fucose-alpha2-Gal-beta3-GalNAc-beta3-Gal-alpha4-Gal-beta4-Glc [Globo-H]”, the “binding by / level of serum antibodies in metastatic breast cancer patients versus healthy individuals” value [5] was “bind and higher than in the healthy individuals”.

With Galβ1-4(Fucα1-3)GlcNAcβSp [Glycan 65] the “reactivity of serum antibodies of xenotransplant recipients” value [4] was “do not have antibodies”.

In the case of “Manα1-3Manα1-6(Manα1-2Manα1-3)Manβ1-4GlcNAcβ1-4GlcNAcβSp [Glycan 140]”, the “binding of 2G12” value [3] is reported as “did not support binding at all”.

With `O=[N+]([O-])c1ccc(O[C@@H]2OC(CO)[C@@H](O[C@@H]3OC(CO)[C@H](O)[C@H](O)C3O)[C@H](O)C2O)cc1` (stereo partly shown) [Compound 5] the “Relative enzyme activity (%) β(1-3)GlcNAcT-activity” value [1] was 945%.

B1: Ceruloplasmine (protein, UniProt P00450 20-1065, looked up)
Ceruloplasmin: KEKHYYIGIIETTWDYASDHGEKKLISVDTEHSNIYLQNGPDRIGRLYKKALYLQYTDETFRTTIEKPVWLGFLGPIIKAETGDKVYVHLKNLASRPYTFHSHGITYYKEHEGAIYPDNTTDFQRADDKVYPGEQYTYMLLATEEQSPGEGDGNCVTRIYHSHIDAPKDIASGLIGPLIICKKDSLDKEKEKHIDREFVVMFSVVDENFSWYLEDNIKTYCSEPEKVDKDNEDFQESNRMYSVNGYTFGSLPGLSMCAEDRVKWYLFGMGNEVDVHAAFFHGQALTNKNYRIDTINLFPATLFDAYMVAQNPGEWMLSCQNLNHLKAGLQAFFQVQECNKSSSKDNIRGKHVRHYYIAAEEIIWNYAPSGIDIFTKENLTAPGSDSAVFFEQGTTRIGGSYKKLVYREYTDASFTNRKERGPEEEHLGILGPVIWAEVGDTIRVTFHNKGAYPLSIEPIGVRFNKNNEGTYYSPNYNPQSRSVPPSASHVAPTETFTYEWTVPKEVGPTNADPVCLAKMYYSAVEPTKDIFTGLIGPMKICKKGSLHANGRQKDVDKEFYLFPTVFDENESLLLEDNIRMFTTAPDQVDKEDEDFQESNKMHSMNGFMYGNQPGLTMCKGDSVVWYLFSAGNEADVHGIYFSGNTYLWRGERRDTANLFPQTSLTLHMWPDTEGTFNVECLTTDHYTGGMKQKYTVNQCRRQSEDSTFYLGERTYYIAAVEVEWDYSPQREWEKELHHLQEQNVSNAFLDKGEFYIGSKYKKVVYRQYTDSTFRVPVERKAEEEHLGILGPQLHADVGDKVKIIFKNMATRPYSIHAHGVQTESSTVTPTLPGETLTYVWKIPERSGAGTEDSACIPWAYYSTVDQVKDLYSGLIGPLIVCRRPYLKVFNPRRKLEFALLFLVFDENESWYLDDNIKTYSDHPEKVNKDDEEFIESNKMHAINGRMFGNLQGLTMHVGDEVNWYLMGMGNEIDLHTVHFHGHSFQYKHRGVYSSDVFDIFPGTYQTLEMFPRTPGIWLLHCHVTDHIHAGMETTYTVLQNEDTKSG
modifications: N-glycans
notes: mixture of bi and tri- and tetra-antenary N-glycans
For B1, the “binding by / level of serum antibodies in metastatic breast cancer patients versus healthy individuals” value [5] was “bind and significantly higher levels”.
